pIC50: −log10 of the molar value. Active and inactive are the calls of the source. No cut-off for these calls is given here.
What was measured:
[1] = target: Tyrosine-protein kinase BTK (Homo sapiens, UniProt Q06187); assay: Inhibition of BTK (unknown origin) measured by ADP-Glo assay
[2] = test system: TMD8; assay: Antiproliferative activity against human TMD8 cells incubated for 72 hrs by CellTiter-Glo assay; details: TMD8, 72 h
[3] = Cmax in male BALB/c mouse at 2 mg/kg, iv; type: ADME, organism-based; parameters: dose 2 mg/kg, route iv; details: in vivo
[4] = Apparent volume of distribution in male BALB/c mouse at 2 mg/kg, iv; type: ADME, organism-based; details: in vivo, read-out: Vz
[5] = Clearance in male BALB/c mouse at 2 mg/kg, iv; type: ADME, organism-based; details: in vivo
[6] = Tmax in male BALB/c mouse at 10 mg/kg, po; type: ADME, organism-based; details: in vivo
[7] = Cmax in male BALB/c mouse at 10 mg/kg, po; type: ADME, organism-based; parameters: dose 10 mg/kg, route po; details: in vivo
[8] = AUC (0 to infinity) in male BALB/c mouse at 10 mg/kg, po; type: ADME, organism-based; parameters: time infinity, dose 10 mg/kg, route po; details: in vivo
[9] = target: Receptor tyrosine-protein kinase erbB-4 (Homo sapiens) (UniProt Q15303); assay: Inhibition of ERBB4 (unknown origin) assessed as residual percent of control at 1 uM measured by DiscoverX kinome scan assay relative to control
[10] = test system: Rec1; assay: Antiproliferative activity against human REC1 cells incubated for 72 hrs by CellTiter-Glo assay; type: functional, cell-based; details: Rec1, 72 h
[11] = test system: OCI-Ly3; assay: Antiproliferative activity against human OCILY3 cells incubated for 72 hrs by CellTiter-Glo assay; type: functional, cell-based; details: OCI-Ly3, 72 h
[12] = test system: SUD4; assay: Antiproliferative activity against human SU-DHL-4 cells incubated for 72 hrs by CellTiter-Glo assay; type: functional, cell-based; details: SU-DHL-4, 72 h
[13] = test system: DOHH-2; assay: Antiproliferative activity against human DOHH-2 cells incubated for 72 hrs by CellTiter-Glo assay; type: functional, cell-based; details: DOHH-2, 72 h
[14] = test system: SU-DHL-6; assay: Antiproliferative activity against human SU-DHL-6 cells incubated for 72 hrs by CellTiter-Glo assay; type: functional, cell-based; details: SU-DHL-6, 72 h
[15] = test system: Raji; assay: Antiproliferative activity against human Raji cells incubated for 72 hrs by CellTiter-Glo assay; type: functional, cell-based
[16] = test system: TMD8; assay: Cell cycle arrest in human TMD8 cells assessed as accumulation of cells at G0/G1 phase at 1 nM after 48 hrs by propidium iodide staining based flow cytometric analysis (reference value: 32.9%); type: functional
[17] = test system: TMD8; assay: Cell cycle arrest in human TMD8 cells assessed as accumulation of cells at S phase at 1 nM after 48 hrs by propidium iodide staining based flow cytometric analysis (reference value: 49.3%); type: functional
[18] = test system: TMD8; assay: Cell cycle arrest in human TMD8 cells assessed as accumulation of cells at G2 phase at 1 nM after 48 hrs by propidium iodide staining based flow cytometric analysis (reference value: 13.4%); type: functional
[19] = test system: TMD8; assay: Cell cycle arrest in human TMD8 cells assessed as accumulation of cells at S phase at 10 nM after 48 hrs by propidium iodide staining based flow cytometric analysis (reference value: 49.3%); type: functional
[20] = test system: TMD8; assay: Cell cycle arrest in human TMD8 cells assessed as accumulation of cells at G0/G1 phase at 100 nM after 48 hrs by propidium iodide staining based flow cytometric analysis (reference value: 32.9%); type: functional
[21] = test system: TMD8; assay: Cell cycle arrest in human TMD8 cells assessed as accumulation of cells at S phase at 100 nM after 48 hrs by propidium iodide staining based flow cytometric analysis (reference value: 49.3%); type: functional
[22] = test system: TMD8; assay: Cell cycle arrest in human TMD8 cells assessed as accumulation of cells at G2 phase at 100 nM after 48 hrs by propidium iodide staining based flow cytometric analysis (reference value: 13.4%); type: functional
[23] = test system: TMD8; assay: Induction of apoptosis in human TMD8 cells assessed as apoptotic cells 10 nM incubated for 72 hrs by AnnexinV-FITC/propidium iodide staining based flow cytometric analysis; type: functional
[24] = test system: TMD8; assay: Induction of apoptosis in human TMD8 cells assessed as apoptotic cells 100 nM incubated for 72 hrs by AnnexinV-FITC/propidium iodide staining based flow cytometric analysis; type: functional
[25] = test system: TMD8; assay: Induction of apoptosis in human TMD8 cells assessed as apoptotic cells 1000 nM incubated for 72 hrs by AnnexinV-FITC/propidium iodide staining based flow cytometric analysis; type: functional
[26] = target: Voltage-gated inwardly rectifying potassium channel KCNH2 (Homo sapiens, UniProt Q12809); assay: Inhibition of hERG; type: toxicity
[27] = Mutagenicity in Salmonella typhimurium TA98 at 1.5 to 1000 ug per plate by AMES test; type: toxicity, Salmonella enterica subsp. enterica serovar Typhimurium; details: dose 1.5-1000 µg
[28] = Mutagenicity in Salmonella typhimurium TA100 at 1.5 to 1000 ug per plate by AMES test; type: toxicity, Salmonella enterica subsp. enterica serovar Typhimurium; details: dose 1.5-1000 µg
[29] = Mutagenicity in Salmonella typhimurium TA1535 at 1.5 to 1000 ug per plate by AMES test; type: toxicity, Salmonella enterica subsp. enterica serovar Typhimurium; details: dose 1.5-1000 µg
[30] = Mutagenicity in Salmonella typhimurium TA1537 at 1.5 to 1000 ug per plate by AMES test; type: toxicity, Salmonella enterica subsp. enterica serovar Typhimurium; details: dose 1.5-1000 µg
[31] = test system: TMD8; assay: Antitumor activity against human TMD8 cells xenografted in female CB-17 SCID nude mouse assessed as tumor suppression at 12.5 to 25 mg/kg, po administered twice daily for 21 days; type: functional, organism-based; details: dose 12.5-25 mg/kg, time 21.0 day
[32] = test system: TMD8; assay: Antitumor activity against human TMD8 cells xenografted in female CB-17 SCID nude mouse assessed as tumor growth inhibition at 50 mg/kg, po administered twice daily for 21 days; type: functional; details: TMD8, 504 h, time 21 day, read-out: TGI
[33] = Toxicity in female CB-17 SCID nude mouse xenografted with human TMD8 cells assessed as effect on body weight at 12.5 to 50 mg/kg, po administered twice daily for 21 days; type: organism-based; details: in vivo, 504 h, dose 12.5-50 mg/kg, time 21 day
[34] = test system: TMD8; assay: In vivo inhibition of BTK in female CB-17 SCID nude mouse xenografted with human TMD8 cells assessed as reduction in p-BTK (Tyr223) expression at 12.5 to 50 mg/kg, po administered twice daily for 21 days; type: functional, organism-based; details: dose 12.5-50 mg/kg, time 21.0 day
[35] = Toxicity in female CB-17 SCID nude mouse xenografted with human TMD8 cells assessed as reduction in lymphocytes at 50 mg/kg, po administered twice daily for 21 days; type: organism-based; details: in vivo, 504 h, time 21 day
[36] = Toxicity in female CB-17 SCID nude mouse xenografted with human TMD8 cells assessed as reduction in monocytes at 50 mg/kg, po administered twice daily for 21 days; type: organism-based; details: in vivo, 504 h, time 21 day
[37] = Toxicity in female CB-17 SCID nude mouse xenografted with human TMD8 cells assessed as effect on red blood cells at 50 mg/kg, po administered twice daily for 21 days; type: organism-based; details: in vivo, 504 h, time 21 day
[38] = Mutagenicity in Salmonella typhimurium TA100 at 1.5 to 1000 ug per plate in presence of liver microsomes by AMES test; type: toxicity, Salmonella enterica subsp. enterica serovar Typhimurium; details: dose 1.5-1000 µg
[39] = Mutagenicity in Salmonella typhimurium TA1535 at 1.5 to 1000 ug per plate in presence of liver microsomes by AMES test; type: toxicity, Salmonella enterica subsp. enterica serovar Typhimurium; details: dose 1.5-1000 µg
[40] = Mutagenicity in Salmonella typhimurium TA1537 at 1.5 to 1000 ug per plate in presence of liver microsomes by AMES test; type: toxicity, Salmonella enterica subsp. enterica serovar Typhimurium; details: dose 1.5-1000 µg

Sequence of Tyrosine-protein kinase BTK (Q06187 whole entry): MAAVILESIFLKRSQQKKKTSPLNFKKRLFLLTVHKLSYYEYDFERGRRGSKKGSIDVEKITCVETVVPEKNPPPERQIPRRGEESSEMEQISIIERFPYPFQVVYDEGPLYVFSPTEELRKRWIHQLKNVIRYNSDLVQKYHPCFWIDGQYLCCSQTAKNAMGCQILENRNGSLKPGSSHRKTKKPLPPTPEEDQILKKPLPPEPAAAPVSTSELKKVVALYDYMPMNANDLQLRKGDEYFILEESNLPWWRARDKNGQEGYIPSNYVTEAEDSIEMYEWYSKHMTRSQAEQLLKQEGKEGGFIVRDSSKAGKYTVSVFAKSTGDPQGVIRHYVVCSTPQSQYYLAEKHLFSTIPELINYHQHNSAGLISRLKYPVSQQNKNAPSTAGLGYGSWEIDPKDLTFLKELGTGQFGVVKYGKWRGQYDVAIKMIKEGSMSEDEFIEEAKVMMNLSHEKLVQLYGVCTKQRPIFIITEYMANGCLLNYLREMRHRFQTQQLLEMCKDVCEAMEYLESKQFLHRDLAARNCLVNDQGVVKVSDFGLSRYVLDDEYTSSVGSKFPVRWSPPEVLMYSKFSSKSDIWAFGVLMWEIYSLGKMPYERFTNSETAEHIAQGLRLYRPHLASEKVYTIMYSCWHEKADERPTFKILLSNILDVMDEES
Sequence of Voltage-gated inwardly rectifying potassium channel KCNH2 (Q12809 whole entry): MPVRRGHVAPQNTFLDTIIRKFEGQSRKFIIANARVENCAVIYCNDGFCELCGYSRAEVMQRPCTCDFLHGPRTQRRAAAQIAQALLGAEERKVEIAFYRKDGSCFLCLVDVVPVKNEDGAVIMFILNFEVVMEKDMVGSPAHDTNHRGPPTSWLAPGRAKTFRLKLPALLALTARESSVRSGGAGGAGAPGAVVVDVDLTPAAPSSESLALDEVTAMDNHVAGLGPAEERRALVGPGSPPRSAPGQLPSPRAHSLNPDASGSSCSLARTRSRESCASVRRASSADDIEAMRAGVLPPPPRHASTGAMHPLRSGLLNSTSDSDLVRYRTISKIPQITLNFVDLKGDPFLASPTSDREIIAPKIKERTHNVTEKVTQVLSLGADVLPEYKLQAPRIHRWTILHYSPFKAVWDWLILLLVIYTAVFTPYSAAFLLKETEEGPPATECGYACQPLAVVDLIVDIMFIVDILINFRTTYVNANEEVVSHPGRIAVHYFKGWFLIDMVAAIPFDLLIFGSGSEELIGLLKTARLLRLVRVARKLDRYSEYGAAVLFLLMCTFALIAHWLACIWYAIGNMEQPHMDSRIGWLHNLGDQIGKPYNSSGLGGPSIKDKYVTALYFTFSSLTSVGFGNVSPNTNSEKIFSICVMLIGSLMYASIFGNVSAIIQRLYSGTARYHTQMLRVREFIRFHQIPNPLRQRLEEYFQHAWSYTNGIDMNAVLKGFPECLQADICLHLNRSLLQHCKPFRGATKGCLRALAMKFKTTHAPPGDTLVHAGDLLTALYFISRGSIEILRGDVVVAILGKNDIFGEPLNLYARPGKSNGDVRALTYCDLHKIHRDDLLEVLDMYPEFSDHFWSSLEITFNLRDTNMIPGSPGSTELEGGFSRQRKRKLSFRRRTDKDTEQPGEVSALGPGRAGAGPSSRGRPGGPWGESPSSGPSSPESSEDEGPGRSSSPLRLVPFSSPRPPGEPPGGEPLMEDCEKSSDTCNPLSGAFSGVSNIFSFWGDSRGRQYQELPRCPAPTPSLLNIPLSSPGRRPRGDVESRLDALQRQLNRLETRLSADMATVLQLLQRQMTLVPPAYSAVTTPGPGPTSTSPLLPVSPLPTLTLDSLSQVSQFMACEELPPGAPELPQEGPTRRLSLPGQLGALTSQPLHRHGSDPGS
Sequence of Receptor tyrosine-protein kinase erbB-4 (Homo sapiens) (Q15303 whole entry): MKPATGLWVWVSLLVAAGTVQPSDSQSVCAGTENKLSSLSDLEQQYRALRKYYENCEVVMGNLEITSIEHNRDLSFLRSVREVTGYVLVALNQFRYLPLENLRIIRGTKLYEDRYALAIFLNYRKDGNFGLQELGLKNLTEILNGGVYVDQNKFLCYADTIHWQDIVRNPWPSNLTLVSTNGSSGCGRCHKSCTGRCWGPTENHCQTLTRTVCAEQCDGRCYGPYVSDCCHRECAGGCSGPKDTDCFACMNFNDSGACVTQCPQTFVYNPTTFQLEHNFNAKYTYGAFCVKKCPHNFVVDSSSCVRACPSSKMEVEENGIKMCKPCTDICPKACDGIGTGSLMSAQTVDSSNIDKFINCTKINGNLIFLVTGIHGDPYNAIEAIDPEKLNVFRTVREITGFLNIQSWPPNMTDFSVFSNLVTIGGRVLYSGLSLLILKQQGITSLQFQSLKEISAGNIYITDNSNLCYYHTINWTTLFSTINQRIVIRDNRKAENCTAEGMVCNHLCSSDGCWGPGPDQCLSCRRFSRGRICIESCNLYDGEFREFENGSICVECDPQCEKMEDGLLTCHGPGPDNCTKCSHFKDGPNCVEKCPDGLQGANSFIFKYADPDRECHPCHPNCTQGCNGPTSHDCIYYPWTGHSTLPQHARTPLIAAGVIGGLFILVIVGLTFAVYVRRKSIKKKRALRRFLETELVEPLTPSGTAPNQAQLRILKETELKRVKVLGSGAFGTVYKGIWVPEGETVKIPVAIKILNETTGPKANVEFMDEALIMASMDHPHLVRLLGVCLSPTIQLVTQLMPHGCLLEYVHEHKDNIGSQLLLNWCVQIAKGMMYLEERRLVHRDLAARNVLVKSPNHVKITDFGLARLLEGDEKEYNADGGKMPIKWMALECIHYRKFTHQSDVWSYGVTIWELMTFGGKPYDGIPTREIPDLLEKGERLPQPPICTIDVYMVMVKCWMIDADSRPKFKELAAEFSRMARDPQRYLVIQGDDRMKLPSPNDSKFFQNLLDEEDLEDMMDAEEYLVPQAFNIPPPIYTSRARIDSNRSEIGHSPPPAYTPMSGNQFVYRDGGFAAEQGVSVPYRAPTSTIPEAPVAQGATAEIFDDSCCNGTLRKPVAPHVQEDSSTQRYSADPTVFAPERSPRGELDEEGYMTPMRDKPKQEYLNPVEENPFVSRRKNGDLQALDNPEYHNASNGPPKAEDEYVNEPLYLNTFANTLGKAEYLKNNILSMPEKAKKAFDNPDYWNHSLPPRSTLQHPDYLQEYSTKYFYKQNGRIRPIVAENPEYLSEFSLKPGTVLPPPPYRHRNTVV

C=CC(=O)N1CC=C(c2c[nH]c3ncnc(-c4ccc(CNC(=O)c5ccccc5)c(F)c4)c23)CC1
pIC50 [1]: 9.15 | pIC50 [2]: 8.59 | Cmax [3]: 2250 ng/mL | Vd [4]: 2.79 L/kg | clearance [5]: 47.8 mL/min/kg | Tmax [6]: 23.4 min | Cmax [7]: 1440 ng/mL | AUC(0-inf) [8]: 1470 ng·h/mL | Activity [9]: 0.55% | pIC50 [10]: 8.77 | pIC50 [11]: < 5.00 | pIC50 [12]: < 5.00 | pIC50 [13]: 5.28 | pIC50 [14]: < 5.00 | pIC50 [15]: < 5.00 | Activity [16]: 33% | Activity [17]: 49.3% | Activity [18]: 11.8% | Activity [19]: 26.4% | Activity [20]: 63% | Activity [21]: 24.6% | Activity [22]: 6.4% | Activity [23]: 19% | Activity [24]: 25.2% | Activity [25]: 31.4% | pIC50 [26]: 5.36 | Activity [27]: Non-Toxic | Activity [28]: Non-Toxic | Activity [29]: Non-Toxic | Activity [30]: Non-Toxic | Activity [31]: Active | inhibition in vivo at 50 mg/kg [32]: 104% | Activity [33]: Non-Toxic | Activity [34]: Active | Activity [35]: Toxic | Activity [36]: Toxic | Activity [37]: Non-Toxic | Activity [38]: Non-Toxic | Activity [39]: Non-Toxic | Activity [40]: Non-Toxic

Reference: ChEMBL document CHEMBL5104164, “Design, synthesis, and biological evaluation of pyrrolopyrimidine derivatives as novel Bruton's tyrosine kinase (BTK) inhibitors” (Eur J Med Chem, 2022)
